Experiment [1] has as its system HeLa. Description: Induction of cell cycle arrest in human HeLa cells at 10 uM incubated for 24 hrs by PI staining based flow cytometry analysis. It counts as functional. Background: A flow cytometer gives signals particle by particle.
The subject of experiment [2] is PC-9. Description: Cytotoxicity against human PC-9 cells at 0.8 to 50 uM incubated for 24 hrs by MTT assay. It counts as functional, cell-based. The note with it: dose 0.8-50 µM. Background: Tetrazolium assays rely on reduction of a dye to a coloured formazan, in cell work by metabolically active cells.
Experiment [3] concerns PC-9. Description: Cytotoxicity against human PC-9 cells assessed as change in morphology at 25 uM incubated for 24 hrs by phase contrast microscopic assay. Format: functional, cell-based.
Experiment [4] has as its system A549. Description: Cytotoxicity against human A549 cells at 0.8 to 50 uM incubated for 24 hrs by MTT assay. It counts as functional, cell-based. The note with it: dose 0.8-50 µM.
Experiment [5] has as its system PC-9. Description: Induction of cell cycle arrest in human PC-9 cells at 10 uM incubated for 24 hrs by PI staining based flow cytometry analysis. It counts as functional.
In experiment [6] the test system is NCI-H1975. In words: Cytotoxicity against human NCI-H1975 cells at 0.8 to 50 uM incubated for 24 hrs by MTT assay. It counts as functional, cell-based. The note with it: dose 0.8-50 µM.
The test system of experiment [7] is HeLa. Description: Cytotoxicity against human HeLa cells assessed as change in morphology at 18 uM incubated for 24 hrs by phase contrast microscopic assay. It counts as functional, cell-based.
Experiment [8] relates to NCI-H1975. Description: Induction of cell cycle arrest in human NCI-H1975 cells at 10 uM incubated for 24 hrs by PI staining based flow cytometry analysis. It counts as functional.
Experiment [9] relates to A549. In words: Cytotoxicity against human A549 cells assessed as change in morphology at 25 uM incubated for 24 hrs by phase contrast microscopic assay. It counts as functional, cell-based.
Experiment [10] has as its system A549. In words: Induction of cell cycle arrest in human A549 cells at 10 uM incubated for 24 hrs by PI staining based flow cytometry analysis. It counts as functional.
Experiment [11] relates to NCI-H1975. In words: Cytotoxicity against human NCI-H1975 cells assessed as change in morphology at 25 uM incubated for 24 hrs by phase contrast microscopic assay. It counts as functional, cell-based.
The target of experiment [12] is Serine/threonine-protein kinase PLK1 (Homo sapiens, UniProt P53350). Description: Binding affinity to PLK1 PBD (unknown origin) by ITC method. In general terms: Isothermal titration calorimetry measures the heat released or taken up as one component is titrated into another.
Experiment [13] in a line: In vivo induction of PLK1 degradation in nude mouse xenografted with human NCI-H1975 cells assessed as reduction in PLK1 protein expression at 5 mg/kg, iv administered for every 3 days by Western blotting analysis. Format: functional. The arrangement: scale not given: the % may be the effect or the level left.
In experiment [14] the test system is UBR/PLK1 (Homo sapiens). Description: Protac activity at UBR/PLK1 in human HeLa cells assessed as PLK1 degradation at 50 uM by immunoblotting analysis. As to conditions: time 2-48 hrs, TDE = time-dependent effect.
Experiment [15] has as its system UBR/PLK1 (Homo sapiens). In words: Protac activity at UBR/PLK1 in human HeLa cells assessed as PLK1 degradation at 100 uM incubated for 24 hrs by immunoblotting analysis.
In experiment [16] the test system is UBR/PLK1 (Homo sapiens). In words: Protac activity at UBR/PLK1 in human HeLa cells assessed as PLK1 degradation incubated for 24 hrs by immunoblotting analysis. The note with it: dose 25-100 µM.
Experiment [17] deals with UBR/PLK1 (Homo sapiens). Description: Protac activity at UBR/PLK1 in human HeLa cells assessed as PLK1 degradation at 50 uM after 24 to 48 hrs by immunoblotting analysis. As to conditions: time 24-48 hrs.
Experiment [18] addresses E3 ubiquitin-protein ligase UBR1 (Homo sapiens) (UniProt Q8IWV7). Description: Binding affinity to UBR1 (unknown origin) expressed in HEK293T cells incubated for 3 hrs by pull-down assay. Format: cell-based.
Experiment [19] has as its target E3 ubiquitin-protein ligase UBR2 (Homo sapiens) (UniProt Q8IWV8). In words: Binding affinity to UBR2 (unknown origin) expressed in HEK293T cells incubated for 3 hrs by pull-down assay. It counts as cell-based.
Experiment [20] has as its system UBR/PLK1 (Homo sapiens). Description: Protac activity at UBR/PLK1 in human HeLa cells assessed as PLK1 degradation at 75 uM incubated for 24 hrs by immunoblotting analysis.
Experiment [21] concerns UBR/PLK1 (Homo sapiens). Description: Protac activity at UBR/PLK1 in human HeLa cells assessed as PLK1 degradation at 50 uM incubated for 24 hrs by immunoblotting analysis.
Experiment [22] concerns UBR/PLK1 (Homo sapiens). In words: Protac activity at UBR/PLK1 in human HeLa cells assessed as PLK1 degradation at 50 uM preincubated for 24 hrs followed by MG132 addition for 8 hrs by immunoblotting analysis. As to conditions: time 32.0 hrs.

As a reminder, the Kd is the equilibrium constant for the complex coming apart.

Activity calls are given as the source filed them. The rule behind the calls is not given here. Where a SMILES comes first, the peptide text is derived from it.

Sequence of E3 ubiquitin-protein ligase UBR2 (Homo sapiens) (Q8IWV8 whole entry): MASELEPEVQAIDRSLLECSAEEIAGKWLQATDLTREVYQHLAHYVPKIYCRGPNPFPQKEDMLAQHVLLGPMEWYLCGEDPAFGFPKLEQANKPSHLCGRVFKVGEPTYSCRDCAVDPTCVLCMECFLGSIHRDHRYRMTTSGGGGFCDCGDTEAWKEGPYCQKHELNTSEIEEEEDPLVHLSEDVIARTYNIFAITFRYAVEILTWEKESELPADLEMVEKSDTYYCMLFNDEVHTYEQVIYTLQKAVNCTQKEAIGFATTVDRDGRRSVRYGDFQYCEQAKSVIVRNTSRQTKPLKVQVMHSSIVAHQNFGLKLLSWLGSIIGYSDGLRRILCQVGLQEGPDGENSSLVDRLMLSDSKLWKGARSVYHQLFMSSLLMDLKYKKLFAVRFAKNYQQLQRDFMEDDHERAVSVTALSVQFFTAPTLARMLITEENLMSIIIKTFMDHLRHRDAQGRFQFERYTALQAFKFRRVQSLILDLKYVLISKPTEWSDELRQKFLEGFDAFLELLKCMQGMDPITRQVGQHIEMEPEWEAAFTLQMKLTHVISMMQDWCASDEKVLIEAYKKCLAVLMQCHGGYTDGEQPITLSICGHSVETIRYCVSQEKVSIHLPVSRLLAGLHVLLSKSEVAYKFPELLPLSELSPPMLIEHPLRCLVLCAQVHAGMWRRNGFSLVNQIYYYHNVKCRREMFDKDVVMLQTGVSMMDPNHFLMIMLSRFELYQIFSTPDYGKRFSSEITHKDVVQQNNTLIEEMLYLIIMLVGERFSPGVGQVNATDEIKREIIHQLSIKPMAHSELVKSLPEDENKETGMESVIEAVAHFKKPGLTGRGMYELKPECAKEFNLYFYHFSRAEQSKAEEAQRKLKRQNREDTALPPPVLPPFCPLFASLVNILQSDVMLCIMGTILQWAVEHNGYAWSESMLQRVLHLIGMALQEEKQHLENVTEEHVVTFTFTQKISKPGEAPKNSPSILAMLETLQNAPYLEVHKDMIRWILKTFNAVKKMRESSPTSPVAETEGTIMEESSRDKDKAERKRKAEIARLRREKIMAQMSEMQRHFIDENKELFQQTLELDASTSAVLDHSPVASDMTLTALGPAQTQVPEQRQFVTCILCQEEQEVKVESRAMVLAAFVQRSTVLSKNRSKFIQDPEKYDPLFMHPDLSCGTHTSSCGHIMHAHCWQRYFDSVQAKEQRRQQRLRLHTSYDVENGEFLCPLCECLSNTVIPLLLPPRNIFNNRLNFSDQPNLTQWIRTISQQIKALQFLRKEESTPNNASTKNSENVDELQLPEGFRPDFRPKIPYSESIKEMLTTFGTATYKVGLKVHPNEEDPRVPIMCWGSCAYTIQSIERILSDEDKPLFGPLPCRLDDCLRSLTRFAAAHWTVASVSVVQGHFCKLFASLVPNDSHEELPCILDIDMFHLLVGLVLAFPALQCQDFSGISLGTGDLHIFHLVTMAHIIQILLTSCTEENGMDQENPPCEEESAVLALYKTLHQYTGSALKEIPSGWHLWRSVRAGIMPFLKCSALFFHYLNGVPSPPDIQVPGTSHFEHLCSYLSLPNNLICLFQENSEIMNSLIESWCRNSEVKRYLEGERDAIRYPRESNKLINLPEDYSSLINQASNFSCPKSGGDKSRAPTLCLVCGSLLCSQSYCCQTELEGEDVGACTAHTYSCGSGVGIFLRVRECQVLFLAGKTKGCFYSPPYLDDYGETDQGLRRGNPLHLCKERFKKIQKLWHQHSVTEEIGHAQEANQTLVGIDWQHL
Sequence of E3 ubiquitin-protein ligase UBR1 (Homo sapiens) (Q8IWV7 whole entry): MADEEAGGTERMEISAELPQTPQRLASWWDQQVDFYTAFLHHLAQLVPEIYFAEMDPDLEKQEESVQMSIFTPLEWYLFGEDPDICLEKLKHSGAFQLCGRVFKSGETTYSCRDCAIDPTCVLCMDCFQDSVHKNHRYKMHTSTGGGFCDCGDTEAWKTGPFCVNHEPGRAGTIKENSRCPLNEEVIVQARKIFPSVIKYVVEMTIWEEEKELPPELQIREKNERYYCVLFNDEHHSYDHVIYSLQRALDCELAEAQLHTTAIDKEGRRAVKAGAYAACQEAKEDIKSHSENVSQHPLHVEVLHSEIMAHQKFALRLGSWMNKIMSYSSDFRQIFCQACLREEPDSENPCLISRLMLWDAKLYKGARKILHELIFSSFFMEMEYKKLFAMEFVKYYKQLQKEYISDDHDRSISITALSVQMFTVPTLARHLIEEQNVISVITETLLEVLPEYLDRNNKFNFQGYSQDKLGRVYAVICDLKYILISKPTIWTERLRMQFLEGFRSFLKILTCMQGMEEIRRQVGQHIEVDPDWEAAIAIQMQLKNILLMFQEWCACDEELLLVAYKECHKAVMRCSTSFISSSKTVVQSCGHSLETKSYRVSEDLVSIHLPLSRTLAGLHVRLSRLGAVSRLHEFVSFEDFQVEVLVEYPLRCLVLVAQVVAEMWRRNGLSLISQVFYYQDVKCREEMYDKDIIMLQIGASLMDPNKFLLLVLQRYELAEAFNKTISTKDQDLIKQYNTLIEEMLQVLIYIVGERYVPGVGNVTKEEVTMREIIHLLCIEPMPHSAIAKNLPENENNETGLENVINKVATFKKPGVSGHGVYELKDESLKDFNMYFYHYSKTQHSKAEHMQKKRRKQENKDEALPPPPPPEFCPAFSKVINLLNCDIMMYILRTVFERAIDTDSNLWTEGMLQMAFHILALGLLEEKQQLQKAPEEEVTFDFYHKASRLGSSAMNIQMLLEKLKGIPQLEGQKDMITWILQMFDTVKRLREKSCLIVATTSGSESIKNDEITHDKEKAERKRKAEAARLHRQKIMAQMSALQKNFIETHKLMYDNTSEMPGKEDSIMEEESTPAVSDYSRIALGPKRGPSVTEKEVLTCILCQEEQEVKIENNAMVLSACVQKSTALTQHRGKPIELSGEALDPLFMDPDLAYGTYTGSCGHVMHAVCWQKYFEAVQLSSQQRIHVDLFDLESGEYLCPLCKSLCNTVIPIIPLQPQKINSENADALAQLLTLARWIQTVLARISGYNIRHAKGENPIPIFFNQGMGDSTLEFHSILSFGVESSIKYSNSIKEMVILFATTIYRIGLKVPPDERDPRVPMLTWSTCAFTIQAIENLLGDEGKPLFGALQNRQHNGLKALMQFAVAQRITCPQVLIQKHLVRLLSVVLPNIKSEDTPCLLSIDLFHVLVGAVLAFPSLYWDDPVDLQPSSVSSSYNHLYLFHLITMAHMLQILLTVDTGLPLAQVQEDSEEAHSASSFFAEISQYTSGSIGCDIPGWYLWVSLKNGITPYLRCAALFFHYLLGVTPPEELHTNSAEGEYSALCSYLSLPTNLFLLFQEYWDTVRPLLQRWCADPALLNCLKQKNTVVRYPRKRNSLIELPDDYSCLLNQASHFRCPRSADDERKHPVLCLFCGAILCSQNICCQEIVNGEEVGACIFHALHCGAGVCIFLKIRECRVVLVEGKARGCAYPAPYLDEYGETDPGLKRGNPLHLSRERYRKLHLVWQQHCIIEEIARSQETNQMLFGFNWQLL
Sequence of Serine/threonine-protein kinase PLK1 (P53350 whole entry): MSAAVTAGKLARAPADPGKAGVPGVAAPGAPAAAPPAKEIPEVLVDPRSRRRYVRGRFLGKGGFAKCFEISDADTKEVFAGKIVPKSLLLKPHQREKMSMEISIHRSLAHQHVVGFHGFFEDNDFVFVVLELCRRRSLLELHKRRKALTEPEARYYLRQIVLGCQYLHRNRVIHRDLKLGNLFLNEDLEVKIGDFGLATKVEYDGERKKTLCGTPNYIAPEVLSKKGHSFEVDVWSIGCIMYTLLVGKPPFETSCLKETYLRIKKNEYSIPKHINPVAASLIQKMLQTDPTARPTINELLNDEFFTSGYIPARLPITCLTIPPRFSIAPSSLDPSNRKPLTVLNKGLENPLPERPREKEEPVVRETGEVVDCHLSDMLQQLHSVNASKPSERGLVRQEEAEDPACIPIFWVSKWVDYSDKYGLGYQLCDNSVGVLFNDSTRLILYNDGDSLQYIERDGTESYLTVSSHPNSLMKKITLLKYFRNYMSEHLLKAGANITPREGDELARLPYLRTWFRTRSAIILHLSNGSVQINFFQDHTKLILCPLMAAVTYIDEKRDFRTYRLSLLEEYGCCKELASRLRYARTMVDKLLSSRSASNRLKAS

As to `N=C(N)NCCC[C@H](NC(=O)[C@H](CCCNC(=N)N)NC(=O)[C@H](CCCNC(=N)N)NC(=O)[C@H](CCCNC(=N)N)NC(=O)[C@H](CCCNC(=N)N)NC(=O)[C@H](CCCNC(=N)N)NC(=O)[C@H](CCCNC(=N)N)NC(=O)[C@H](CCCNC(=N)N)NC(=O)[C@H](CCCNC(=N)N)NC(=O)[C@H](CCCNC(=N)N)NC(=O)[C@H](CCCNC(=N)N)NC(=O)[C@@H](N)CCCNC(=N)N)C(N)=O`, the result in the experiment on HeLa [1], in the experiment with PC-9 [2], in the experiment on PC-9 [3], in the experiment on A549 [4], in the experiment with PC-9 [5] and in the experiment on NCI-H1975 [6] was inactive. In addition, the outcome in the experiment with HeLa [7], with NCI-H1975 [8], with A549 [9], in the experiment on A549 [10] and in the experiment on NCI-H1975 [11] was inactive.

Compound `CC(C)C[C@H](NC(=O)[C@@H]1CCCN1C(=O)CCCCCNC(=O)[C@H](CCCNC(=N)N)NC(=O)[C@H](CCCNC(=N)N)NC(=O)[C@H](CCCNC(=N)N)NC(=O)[C@H](CCCNC(=N)N)NC(=O)[C@H](CCCNC(=N)N)NC(=O)[C@H](CCCNC(=N)N)NC(=O)[C@H](CCCNC(=N)N)NC(=O)[C@H](CCCNC(=N)N)NC(=O)[C@H](CCCNC(=N)N)NC(=O)[C@H](CCCNC(=N)N)NC(=O)[C@H](CCCNC(=N)N)NC(=O)[C@@H](N)CCCNC(=N)N)C(=O)N[C@@H](Cc1cnc[nH]1)C(=O)N[C@@H](CO)C(=O)N[C@H](C(N)=O)[C@@H](C)OP(=O)(O)O` displayed a Kd in experiment [12] of 2.2 µM.

Regarding `C=CC(=O)Nc1cc(Nc2nccc(-c3cn(C)c4ccccc34)n2)c(OC)cc1N(C)CCN(C)C` [OSIMERTINIB], the Activity in experiment [13] was greater than 60%.

With `C[C@@H](OP(=O)(O)O)[C@@H]1NC(=O)[C@H](Cc2cncn2CCCCCCCCc2ccccc2)NC(=O)[C@@H](N)CCC(=O)NCCCC[C@@H](C(N)=O)NC1=O` (HELM PEPTIDE1{E.[O=C([C@H](Cc1cncn1CCCCCCCCc1ccccc1)N[*:1])[*:2]].[C[C@@H](OP(=O)(O)O)[C@H](N[*:1])C(=O)[*:2]].K.[am]}$PEPTIDE1,PEPTIDE1,1:R3-4:R3$$$V2.0), the outcome with PC-9 [2], in the experiment on PC-9 [3], in the experiment on A549 [4], in the experiment on NCI-H1975 [6], in the experiment on HeLa [7] and in the experiment on A549 [9] was inactive. Further, in the experiment on NCI-H1975 [11], the result was inactive.

`CC(C)C[C@H](NC(=O)[C@H]1CCCN1C(=O)CCCCCNC(=O)[C@H](CCCNC(=N)N)NC(=O)[C@H](CCCNC(=N)N)NC(=O)[C@H](CCCNC(=N)N)NC(=O)[C@H](CCCNC(=N)N)NC(=O)[C@H](CCCNC(=N)N)NC(=O)[C@H](CCCNC(=N)N)NC(=O)[C@H](CCCNC(=N)N)NC(=O)[C@H](CCCNC(=N)N)NC(=O)[C@H](CCCNC(=N)N)NC(=O)[C@H](CCCNC(=N)N)NC(=O)[C@H](CCCNC(=N)N)NC(=O)[C@@H](N)CCCNC(=N)N)C(=O)N[C@@H](Cc1cnc[nH]1)C(=O)N[C@@H](CO)C(=O)N[C@H](C(N)=O)[C@@H](C)OP(=O)(O)O`: the Activity entry was “Tde” in the experiment with UBR/PLK1 (Homo sapiens) [14]; 70% in the experiment on UBR/PLK1 (Homo sapiens) [15]; “Dose-Dependent Effect” with UBR/PLK1 (Homo sapiens) [16]; 90% in the experiment on UBR/PLK1 (Homo sapiens) [17]; 70% in the experiment on UBR/PLK1 (Homo sapiens) [20]; 60% in the experiment with UBR/PLK1 (Homo sapiens) [21]. The outcome in experiment [18] and in [19] was Active. Also, the result in the experiment on UBR/PLK1 (Homo sapiens) [22] was inactive.
